Source: PMC8391127, “Triterpenoid–PEG Ribbons Targeting Selectivity in Pharmacological Effects” (Biomedicines, 2021)
Where two headings read alike, the source gives them in different places. Marks after values point to notes of the source that are not given here.

Key:
Bacillus cereus = test: Antimicrobial screening, resazurine test; format: cell-based; conditions: for inhibition at 25 µg/mL / inhibition at 50 µg/mL / inhibition at 100 µg/mL: Bacillus cereus
Description: (§1) The resazurine test was used to evaluate this activity.
(§2) The cell inoculum was made in Mueller–Hinton broth (10 mL). Colonies of cells were inoculated from the solid medium that was cultivated for 24 h under optimum conditions. A part of the inoculum was diluted to get suspension with an optical density 0.6 to 0.9 McF. An aliquot amount (1 mL) was taken and diluted with additional volume of the medium (19 mL). The stored solutions of the tested compounds were made at a concentration c = 200 µg.mL^−1. The stored suspensions of the cells, MHB medium, solutions of the antibiotics specific for the given bacteria (vancomycin for S. aureus and E. faecalis, kanamycin for E. coli and P. aeruginosa, and tetracycline for B. cereus), and the solutions of the compounds were pipetted into the microtitration plates. Subsequently, a concentration sequence of the tested compounds was made (c = 100, 50, and 25 µg.mL^−1). The content of the microtitration plates was cultivated for 24 h under optimum conditions for the given bacteria. A solution of resazurine was made, based on a dilution of its stored solution (c = 0.15 mg.mL^−1; 2 mL) into the MHB medium (18 mL). Then, it was pipetted into the microtitration plates that were cultivated for an additional 1 h. Finally, fluorescence measurement (excitation at 560 nm, emission at 590 nm) was made, and the inhibition of the bacterium was determined.
(§3) 2. Antimicrobial screening tests
(§4) Antimicrobial activity of the target molecular ribbons 8a, 12a, 8b, 12b, 4c, 6c, 6d and 8d, and […]
(§5) aeruginosa, Staphylococcus aureus and Enterococcus faecalis. The resazurine test was used to […]
(§6) ribbons which have been achieved in this investigation.
(§7) Table S1. Antimicrobial activity, inhibition of the microorganism [%]
(§8) Comp. Staphylococcus aureus Comp. Escherichia coli […]
(§9) µg·mL-1 µg·mL-1 µg·mL-1 µg·mL-1 µg·mL-1 µg·mL-1
(§10) Comp. Bacillus cereus Comp. Pseudomonas aeruginosa

Staphylococcus aureus = test: Antimicrobial screening, resazurine test; format: cell-based; conditions: Staphylococcus aureus, read-out: Inhibition of the microorganism
Description: as §1, §2, §3, §4, §5, §6, §7, §8, §9, §10

Escherichia coli = test: Antimicrobial screening, resazurine test; format: cell-based; conditions: Escherichia coli, read-out: Inhibition of the microorganism
Description: as §1, §2, §3, §4, §5, §6, §7, §8, §9, §10

Enterococcus faecalis = test: Antimicrobial screening, resazurine test; format: cell-based; conditions: for inhibition at 25 µg/mL / inhibition at 50 µg/mL / inhibition at 100 µg/mL: Enterococcus faecalis, read-out: Inhibition of the microorganism
Description: as §1, §2, §3, §4, §5, §6, §7, §8, §9, §10

Pseudomonas aeruginosa = test: Antimicrobial screening, resazurine test; format: cell-based
Description: as §1, §2, §3, §4, §5, §6, §7, §8, §9, §10

[1] = Ability to form supramolecular gel; format: physicochemical; conditions: 1% w/v in solvent, ultrasound 30 min, heated to boiling, cooled to r.t. 24 h
Description: The solutions of the studied compounds 8a, 12a, 8b, 12b, 4c, 6c, 6d, and 8d (1%, w/v) in the appropriate solvent were mixed with ultrasound for 30 min, then heated to the boiling points of the used solvents, and then allowed to cool down to the r.t. for 24 h. An example of the resulting gels that were produced from 8a, 4c, 6c, and 6d is shown in the Supplementary Material, Figure S1.

[2] = B. cereus, c = 25 µg·mL-1, read-out: Inhibition of the microorganism
[3] = B. cereus, c = 50 µg·mL-1, read-out: Inhibition of the microorganism
[4] = B. cereus, c = 100 µg·mL-1, read-out: Inhibition of the microorganism
[5] = P. aeruginosa, c = 25 µg·mL-1, read-out: Inhibition of the microorganism
[6] = P. aeruginosa, c = 50 µg·mL-1, read-out: Inhibition of the microorganism
[7] = P. aeruginosa, c = 100 µg·mL-1, read-out: Inhibition of the microorganism
[8] = read-out: Inhibition of the microorganism

SMILES: CC1(C)CC[C@]2(C(=O)O)CC[C@]3(C)C(=CC[C@@H]4[C@@]5(C)CC[C@H](O)C(C)(C)[C@@H]5CC[C@]43C)[C@@H]2C1 [1a, Oleanolic acid, reference compound]
- Inhibition of the microorganism (Bacillus cereus; B. cereus, c = 25 µg·mL-1): 76 ± 11.4%
- inhibition at 25 µg/mL (Bacillus cereus; [2]): > 77%
- inhibition at 50 µg/mL (Bacillus cereus; [3]): 77 ± 11.6%
- inhibition at 100 µg/mL (Bacillus cereus; [4]): 77 ± 11.6%
- inhibition at 25 µg/mL (Staphylococcus aureus; S. aureus, c = 25 µg·mL-1): 0 to 1%
- inhibition at 50 µg/mL (Staphylococcus aureus; S. aureus, c = 50 µg·mL-1): 8 ± 1.2%
- inhibition at 100 µg/mL (Staphylococcus aureus; S. aureus, c = 100 µg·mL-1): 33 ± 5%
- inhibition at 25 µg/mL (Escherichia coli; E. coli, c = 25 µg·mL-1): 0 to 1%
- inhibition at 50 µg/mL (Escherichia coli; E. coli, c = 50 µg·mL-1): 0 to 1%
- inhibition at 100 µg/mL (Escherichia coli; E. coli, c = 100 µg·mL-1): 0 to 1%
- Inhibition of the microorganism (Enterococcus faecalis; E. faecalis, c = 25 µg·mL-1): 87 ± 13.0%
- inhibition at 25 µg/mL (Enterococcus faecalis; E. faecalis, c = 25 µg·mL-1): > 87%
- inhibition at 50 µg/mL (Enterococcus faecalis; E. faecalis, c = 50 µg·mL-1): 90 ± 13.5%
- inhibition at 100 µg/mL (Enterococcus faecalis; E. faecalis, c = 100 µg·mL-1): 89 ± 13.4%
- inhibition at 25 µg/mL (Pseudomonas aeruginosa; [5]): 0 to 1%
- inhibition at 50 µg/mL (Pseudomonas aeruginosa; [6]): 0 to 1%
- inhibition at 100 µg/mL (Pseudomonas aeruginosa; [7]): 0 to 1%

SMILES: CC1(C)C=C2[C@H]3CC[C@@H]4[C@@]5(C)CC[C@H](O)C(C)(C)[C@@H]5CC[C@@]4(C)[C@]3(C)CC[C@@]2(C(=O)O)CC1 [1b, morolic acid, reference compound]
- Inhibition of the microorganism (Bacillus cereus; B. cereus, c = 25 µg·mL-1): 78 ± 11.7%
- inhibition at 25 µg/mL (Bacillus cereus; read-out: Inhibition of the microorganism, B. cereus, c = 25 µg·mL-1): > 77%
- inhibition at 50 µg/mL (Bacillus cereus; read-out: Inhibition of the microorganism, B. cereus, c = 50 µg·mL-1): 76 ± 11.4%
- inhibition at 100 µg/mL (Bacillus cereus; read-out: Inhibition of the microorganism, B. cereus, c = 100 µg·mL-1): 75 ± 11.3%
- inhibition at 25 µg/mL (Staphylococcus aureus): 21 ± 3.2%
- inhibition at 50 µg/mL (Staphylococcus aureus): 17 ± 2.6%
- inhibition at 100 µg/mL (Staphylococcus aureus): 47 ± 7%
- inhibition at 25 µg/mL (Escherichia coli): 0 to 1%
- inhibition at 50 µg/mL (Escherichia coli): 2 ± 0.3%
- inhibition at 100 µg/mL (Escherichia coli): 0 to 1%
- inhibition at 25 µg/mL (Enterococcus faecalis): 38 ± 5.7%
- inhibition at 50 µg/mL (Enterococcus faecalis): 64 ± 9.6%
- inhibition at 100 µg/mL (Enterococcus faecalis): 69 ± 10.4%
- inhibition at 25 µg/mL (Pseudomonas aeruginosa; [8]): 0 to 1%
- inhibition at 50 µg/mL (Pseudomonas aeruginosa; [8]): 0 to 1%
- inhibition at 100 µg/mL (Pseudomonas aeruginosa; [8]): 0 to 1%

SMILES: CC1(C)C=C2[C@H]3CC[C@@H]4[C@@]5(C)CCC(=O)C(C)(C)[C@@H]5CC[C@@]4(C)[C@]3(C)CC[C@@]2(C(=O)O)CC1 [1c, moronic acid, reference compound]
- inhibition at 25 µg/mL (Bacillus cereus; [2]): 0 to 1%
- inhibition at 50 µg/mL (Bacillus cereus; [3]): 15 ± 2.3%
- inhibition at 100 µg/mL (Bacillus cereus; [4]): 66 ± 9.9%
- inhibition at 25 µg/mL (Staphylococcus aureus; S. aureus, c = 25 µg·mL-1): 0 to 1%
- inhibition at 50 µg/mL (Staphylococcus aureus; S. aureus, c = 50 µg·mL-1): 3 ± 0.5%
- inhibition at 100 µg/mL (Staphylococcus aureus; S. aureus, c = 100 µg·mL-1): 10 ± 1.5%
- inhibition at 25 µg/mL (Escherichia coli; E. coli, c = 25 µg·mL-1): 0 to 1%
- inhibition at 50 µg/mL (Escherichia coli; E. coli, c = 50 µg·mL-1): 0 to 1%
- inhibition at 100 µg/mL (Escherichia coli; E. coli, c = 100 µg·mL-1): 0 to 1%
- inhibition at 25 µg/mL (Enterococcus faecalis; E. faecalis, c = 25 µg·mL-1): 0 to 1%
- inhibition at 50 µg/mL (Enterococcus faecalis; E. faecalis, c = 50 µg·mL-1): 0 to 1%
- inhibition at 100 µg/mL (Enterococcus faecalis; E. faecalis, c = 100 µg·mL-1): 0 to 1%
- inhibition at 25 µg/mL (Pseudomonas aeruginosa; [5]): 0 to 1%
- inhibition at 50 µg/mL (Pseudomonas aeruginosa; [6]): 0 to 1%
- inhibition at 100 µg/mL (Pseudomonas aeruginosa; [7]): 0 to 1%

SMILES: CC1(C)C=C2[C@H]3CC[C@@H]4[C@@]5(C)CCC(=O)C(C)(C)[C@@H]5CC[C@@]4(C)[C@]3(C)CC[C@@]2(C(=O)NCCOCCOCCOCCn2cc(COC(=O)[C@]34CCC(C)(C)C=C3[C@H]3CC[C@@H]5[C@@]6(C)CCC(=O)C(C)(C)[C@@H]6CC[C@@]5(C)[C@]3(C)CC4)nn2)CC1 [4c]
- Gel formation [1]: produced a gel in glycerol
- inhibition at 25 µg/mL (Bacillus cereus; [2]): 2 ± 0.3%
- inhibition at 50 µg/mL (Bacillus cereus; [3]): 0 to 1%
- inhibition at 100 µg/mL (Bacillus cereus; [4]): 6 ± 9%
- inhibition at 25 µg/mL (Staphylococcus aureus; S. aureus, c = 25 µg·mL-1): 11 ± 1.7%
- inhibition at 50 µg/mL (Staphylococcus aureus; S. aureus, c = 50 µg·mL-1): 66 ± 9.9%
- inhibition at 100 µg/mL (Staphylococcus aureus; S. aureus, c = 100 µg·mL-1): 76 ± 11.4%
- inhibition at 25 µg/mL (Escherichia coli; E. coli, c = 25 µg·mL-1): 25 ± 3.8%
- inhibition at 50 µg/mL (Escherichia coli; E. coli, c = 50 µg·mL-1): 34 ± 5.1%
- inhibition at 100 µg/mL (Escherichia coli; E. coli, c = 100 µg·mL-1): 31 ± 4.7%
- Inhibition of the microorganism (Enterococcus faecalis; E. faecalis, c = 25 µg·mL-1): 62 ± 9.3 ^e %
- inhibition at 25 µg/mL (Enterococcus faecalis; E. faecalis, c = 25 µg·mL-1): > 62%
- inhibition at 50 µg/mL (Enterococcus faecalis; E. faecalis, c = 50 µg·mL-1): 50 ± 7.5%
- inhibition at 100 µg/mL (Enterococcus faecalis; E. faecalis, c = 100 µg·mL-1): 43 ± 6.5%
- inhibition at 25 µg/mL (Pseudomonas aeruginosa; [5]): 50 ± 7.5%
- inhibition at 50 µg/mL (Pseudomonas aeruginosa; [6]): 47 ± 7%
- inhibition at 100 µg/mL (Pseudomonas aeruginosa; [7]): 46 ± 6.8%
